Here are results for 19 molecules from patent US20230118688A1, “1H-PYRAZOLO[4,3-d]PYRIMIDINE COMPOUNDS AS TOLL-LIKE RECEPTOR 7 (TLR7) AGONISTS” (BRISTOL-MYERS SQUIBB COMPANY, priority 2020, published 2023).

The assay has as its target T1, human TLR7 (Homo sapiens, UniProt Q9NYK1).
T1 construct: host or cells: HEK-Blue TLR7 cells (engineered human embryonic kidney cells)
T1 sequence (Q9NYK1 27-1049): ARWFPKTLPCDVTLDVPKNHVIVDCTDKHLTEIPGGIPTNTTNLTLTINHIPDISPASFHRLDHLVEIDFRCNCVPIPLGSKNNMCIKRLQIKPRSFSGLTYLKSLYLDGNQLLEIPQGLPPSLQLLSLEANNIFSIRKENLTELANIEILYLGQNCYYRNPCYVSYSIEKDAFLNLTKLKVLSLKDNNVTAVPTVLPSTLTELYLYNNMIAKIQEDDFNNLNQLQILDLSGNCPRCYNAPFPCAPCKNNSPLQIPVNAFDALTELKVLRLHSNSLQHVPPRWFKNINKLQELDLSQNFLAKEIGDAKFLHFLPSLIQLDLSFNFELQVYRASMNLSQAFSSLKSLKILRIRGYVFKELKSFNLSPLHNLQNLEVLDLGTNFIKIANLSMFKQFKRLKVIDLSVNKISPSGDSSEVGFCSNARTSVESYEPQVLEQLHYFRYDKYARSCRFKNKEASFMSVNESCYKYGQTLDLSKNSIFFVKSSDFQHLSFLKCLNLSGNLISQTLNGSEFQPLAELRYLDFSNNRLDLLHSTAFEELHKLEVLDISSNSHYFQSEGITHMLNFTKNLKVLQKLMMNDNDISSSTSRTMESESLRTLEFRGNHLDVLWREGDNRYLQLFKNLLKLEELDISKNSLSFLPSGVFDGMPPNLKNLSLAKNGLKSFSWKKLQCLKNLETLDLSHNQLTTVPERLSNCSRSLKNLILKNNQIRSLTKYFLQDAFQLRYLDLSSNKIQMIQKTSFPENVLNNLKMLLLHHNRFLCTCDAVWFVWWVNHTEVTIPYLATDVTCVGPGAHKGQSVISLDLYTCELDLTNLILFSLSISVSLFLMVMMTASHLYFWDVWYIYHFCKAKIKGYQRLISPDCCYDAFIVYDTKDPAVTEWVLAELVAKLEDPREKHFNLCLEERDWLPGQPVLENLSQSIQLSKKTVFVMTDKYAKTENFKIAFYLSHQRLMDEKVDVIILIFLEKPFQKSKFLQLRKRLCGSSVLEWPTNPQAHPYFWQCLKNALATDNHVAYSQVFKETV
Put plainly: Human TLR7 agonist activity reporter assay (HEK-Blue TLR7 cells, SEAP reporter). In kind it is cell-based. The following applies: 18 h treatment, average where assay repeated, Table A1, read-out: hTLR7 Agonism EC50. The procedure: This procedure describes a method for assaying human TLR7 (hTLR7) agonist activity of the compounds disclosed in this specification.
HEK-Blue™ TLR7 cells were added to each well of a 384-well tissue-culture plate (15,000 cells per well) and incubated 16-18 h at 37° C., 5% CO2. Compounds (100 nl) were dispensed into wells containing the HEK-Blue™ TLR cells and the treated cells were incubated at 37° C., 5% CO2. After 18 h treatment ten microliters of freshly-prepared Quanti-Blue™ reagent (Invivogen) was added to each well, incubated for 30 min (37° C., 5% CO2) and SEAP levels measured using an Envision plate reader (OD=620 nm). The half maximal effective concentration values (EC50; compound concentration which induced a response halfway between the assay baseline and maximum) were calculated.
(Reporter assays use an easily measured gene product as a stand-in for the process of interest.)

For the molecule `CCCCNc1nc(N)nc2cnn(Cc3cc(CNC4CCOCC4)ccc3OC)c12` [Compound 101, N7-butyl-1-[(2-methoxy-5-{[(oxan-4-yl)amino]-methyl}phenyl)methyl]-1H-pyrazolo[4,3-d]pyrimidine-5,7-diamine], the EC50 worked out at 0.352 µM.
With `CCCCNc1nc(N)nc2cnn(Cc3cc(CN4CCC5CCC(C5)C4)ccc3OC)c12` (stereo not shown) [Compound 102, 1-{[5-({3-azabicyclo-[4.2.1]nonan-3-yl}methyl)-2-methoxyphenyl]methyl}-N7-butyl-1H-pyrazolo[4,3-d]pyrimidine-5,7-diamine] the figure was 0.658 µM; with `CCCCNc1nc(N)nc2cnn(Cc3cc(CN4CCC5CCC(C5)C4)ccc3OC)c12` (stereo not shown) [Compound 103, 1-{[5-({3-azabicyclo-[4.2.1]nonan-3-yl}methyl)-2-methoxyphenyl]methyl}-N7-butyl-1H-pyrazolo[4,3-d]pyrimidine-5,7-diamine], 0.193 µM.
The result for `CCCCNc1nc(N)nc2cnn(Cc3cc(CN4CC5CCCC(C5)C4)ccc3OC)c12` [Compound 104, 1-{[5-({3-azabicyclo-[3.3.1]nonan-3-yl}methyl)-2-methoxyphenyl]methyl}-N7-butyl-1H-pyrazolo[4,3-d]pyrimidine-5,7-diamine] reads 0.63 µM; that for `CCCCNc1nc(N)nc2cnn(Cc3cc(CN4CC5CCCCCC54)ccc3OC)c12` (stereo not shown) [Compound 106, 1-{[5-({8-azabicyclo-[5.2.0]nonan-8-yl}methyl)-2-methoxyphenyl]methyl}-N7-butyl-1H-pyrazolo[4,3-d]pyrimidine-5,7-diamine], 0.502 µM.
`CCCCNc1nc(N)nc2cnn(Cc3cc(CN4CC5CCCC(C4)C5O)ccc3OC)c12` (stereo not shown) [Compound 107, 3-[(3-{[5-amino-7-(butyl-amino)-1H-pyrazolo[4,3-d]pyrimidin-1-yl]methyl}-4-methoxyphenyl)methyl]-3-aza bicyclo[3.3.1]nonan-9-ol]: the EC50 stood at 0.75 µM.
For `CCCCNc1nc(N)nc2cnn(Cc3cc(CN4CC(O)C4)ccc3OC)c12` [Compound 108, 1-[(3-{[5-amino-7-(butyl-amino)-1H-pyrazolo[4,3-d]pyrimidin-1-yl]methyl}-4-methoxyphenyl)me-thyl]azetidin-3-ol], the EC50 was found to be 0.146 µM.
On to `CCCCNc1nc(N)nc2cnn(Cc3cc(CN4CCN(C)CC4)ccc3OC)c12` [Compound 109, N7-butyl-1-({2-methoxy-5-[(4-methylpiperazin-1-yl)methyl]phenyl}methyl)-1H-pyrazolo[4,3-d] pyrimidine-5,7-diamine], for which the EC50 amounted to 0.0513 µM.
Take `CCCCNc1nc(N)nc2cnn(Cc3cc(CNC45CC(C4)C5)ccc3OC)c12` [Compound 110, 1-({5-[({bicyclo[1.1.1]-pentan-1-yl}amino)methyl]-2-methoxyphenyl}-methyl)-N7-butyl-1H-pyrazolo[4,3-d]pyrimidine-5,7-diamine]: the EC50 came to 0.447 µM.
On to `CCCCNc1nc(N)nc2cnn(Cc3cc(CNC4CC5(CC5)C4)ccc3OC)c12` [Compound 111, N7-butyl-1-({2-methoxy-5-[({spiro[2.3]hexan-5-yl}amino)methyl]phenyl}methyl)-1H-pyrazolo[4,3-d]pyrimidine-5,7-diamine], for which the EC50 amounted to 0.358 µM.
Turning to `CCCCNc1nc(N)nc2cnn(Cc3cc(CNC(C)(C)C)ccc3OC)c12` [Compound 112], the EC50 was found to be 0.249 µM.
Take `CCCCNc1nc(N)nc2cnn(Cc3cc(CN4CC5CCS(=O)(=O)C5C4)ccc3OC)c12` (stereo not shown) [Compound 113, 5-[(3-{[5-amino-7-(butyl-amino)-1H-pyrazolo[4,3-d]pyrimidin-1-yl]methyl}-4-methoxyphenyl)methyl]-hexahydro-2H-1λ6-thieno-[2,3-c]pyrrole-1,1-dione]: the EC50 is 0.493 µM.
In the case of `CCCCNc1nc(N)nc2cnn(Cc3cc(CN4CCC4)ccc3OC)c12` [Compound 115, 1-({5-[(azetidin-1-yl)methyl]-2-methoxyphenyl}-methyl)-N7-butyl-1H-pyrazolo[4,3-d]pyrimidine-5,7-diamine], the EC50 was 0.172 µM.
The result for `CCC[C@@H](CCO)Nc1nc(N)nc2cnn(Cc3cc(CN[C@H]4CCOC[C@H]4O)ccc3OC)c12` [Compound 179, (3S,4S)-4-[({3-[(5-amino-7-{[(3S)-1-hydroxyhexan-3-yl]amino}-1H-pyrazolo[4,3-d]pyrimidin-1-yl)methyl]-4-methoxyphenyl}methyl)-amino]oxan-3-ol] reads 0.405 µM; that for `CCC[C@@H](CCO)Nc1nc(N)nc2cnn(Cc3cc(CN[C@@H]4COCC[C@H]4O)ccc3OC)c12` [Compound 180, (3R,4R)-3-[({3-[(5-amino-7-{[(3S)-1-hydroxyhexan-3-yl]amino}-1H-pyrazolo[4,3-d]pyrimidin-1-yl)methyl]-4-methoxyphenyl}methyl)-amino]oxan-4-ol], 0.213 µM; that for `CCC[C@@H](CCO)Nc1nc(N)nc2cnn(Cc3cc(CN[C@@H]4COC[C@H]4O)ccc3OC)c12` [Compound 181, (3S,4R)-4-[({3-[(5-amino-7-{[(3S)-1-hydroxyhexan-3-yl]amino}-1H-pyrazolo[4,3-d]pyrimidin-1-yl)methyl]-4-methoxyphenyl}methyl)-amino]oxolan-3-ol], 0.308 µM.
With `CCC[C@@H](CCO)Nc1nc(N)nc2cnn(Cc3cc(CN[C@H]4COCC[C@@H]4O)ccc3OC)c12` [Compound 182, (3S,4S)-3-[({3-[(5-amino-7-{[(3S)-1-hydroxyhexan-3-yl]amino}-1H-pyrazolo[4,3-d]pyrimidin-1-yl)methyl]-4-methoxyphenyl}methyl)-amino]oxan-4-ol] the figure was 0.197 µM; with `CCC[C@@H](CCO)Nc1nc(N)nc2cnn(Cc3cc(CN[C@@H]4CCOC[C@H]4O)ccc3OC)c12` [Compound 183, (3S,4R)-4-[({3-[(5-amino-7-{[(3S)-1-hydroxyhexan-3-yl]amino}-1H-pyrazolo[4,3-d]pyrimidin-1-yl)methyl]-4-methoxyphenyl}methyl)-amino]oxan-3-ol], 0.479 µM; with `CCC[C@@H](CCO)Nc1nc(N)nc2cnn(Cc3cc(CN[C@H]4COC[C@@H]4O)ccc3OC)c12` [Compound 184], 0.339 µM.

Usually EC50 stands for the concentration needed to bring the measured effect to its halfway point.
